Laboratory results reported in article PMC8657435, “Adamantane-Substituted Purines and Their β-Cyclodextrin Complexes: Synthesis and Biological Activity” (International Journal of Molecular Sciences, 2021).
Where “and” joins values, the source holds several entries; their conditions need not be identical. Equal entries are not always repeated. Where two headings read alike, the source gives them in different places.

How the values were obtained:
K-562 [1] = assay: In vitro cytotoxicity / antiproliferative activity, resazurin viability assay, 72 h; format: cell-based, human
CDK2/cyclin E [2] = molecular target: T1, CDK2/cyclin E (Homo sapiens, UniProt P24941); assay: CDK2/cyclin E kinase inhibition assay ([γ-33P]ATP, peptide substrate); format: biochemical
Experimental: CDK2/cyclin E activity was assayed as previously described. Briefly, the kinase was assayed with [γ-^33P]ATP and suitable peptide substrates in a reaction buffer (60 mM HEPES-NaOH, pH 7.5, 3 mM MgCl2, 3 mM MnCl2, 3 μM Na-orthovanadate, 1.2 mM DTT, 2.5 μg/50 μL PEG20.000). The reactions were stopped by adding 5 µL of 3% aq. H3PO4. Aliquots were spotted onto P-81 phosphocellulose, washed with 0.5% aq. H3PO4 and air-dried. Kinase inhibition was quantified using an FLA-7000 digital image analyser.

MCF-7 [3] = assay: In vitro cytotoxicity / antiproliferative activity, resazurin viability assay, 72 h; format: cell-based, human
K-562 [4] = test system: K-562; design: method as in Popowycz et al. [51]; conditions: single purine; ref Popowycz et al. [51]; cited from earlier work
MCF-7 [5] = test system: MCF-7; design: method as in Popowycz et al. [51]; conditions: single purine; ref Popowycz et al. [51]; cited from earlier work
CDK2 = conditions: no inhibition activity; read-out: IC50 towards CDK2; cited from earlier work
CDK2/cyclin E [6] = molecular target: T1, CDK2/cyclin E; conditions: Figure 1; cited from earlier work
CDK1 = test system: CDK1; design: method as in PMID 24900429; conditions: no inhibition activity; read-out: IC50 towards CDK1; cited from earlier work
[7] = Homo sapiens, K562, single purine, 72 h, read-out: K-562 GI50, Purine
[8] = mixture purine·β-CD 1:1, 72 h, read-out: K-562 GI50, Purine·β-CD (1:1)
[9] = mixture purine·β-CD 1:10, 72 h, read-out: K-562 GI50, Purine·β-CD (1:10)
[10] = mixture purine·β-CD 1:1 molar ratio, read-out: CDK2/Cyclin E IC50, Purine·β-CD (1:1)
[11] = mixture purine·β-CD 1:10 molar ratio, read-out: CDK2/Cyclin E IC50, Purine·β-CD (1:10)
[12] = single purine, no β-CD, mean ± SD of duplicated experiments, read-out: CDK2/Cyclin E IC50, Purine
[13] = Homo sapiens, MCF7, single purine, 72 h, read-out: MCF-7 GI50, Purine
[14] = mixture purine·β-CD 1:1, 72 h, read-out: MCF-7 GI50, Purine·β-CD (1:1)
[15] = mixture purine·β-CD 1:10, 72 h, read-out: MCF-7 GI50, Purine·β-CD (1:10)
[16] = mixture purine·β-CD 1:1 molar ratio
[17] = mixture purine·β-CD 1:10 molar ratio
[18] = single purine, no β-CD, mean ± SD of duplicated experiments

| SMILES | IC50 (CDK2/cyclin E [2]; [10]) [µM] | IC50 (CDK2/cyclin E [2]; [11]) [µM] | IC50 (CDK2/cyclin E [2]; [12]) | melting point [°C] | GI50 (K-562 [1]; [7]) [µM] | GI50 (K-562 [1]; [8]) [µM] | GI50 (K-562 [1]; [9]) [µM] | GI50 (MCF-7 [3]; [13]) [µM] | GI50 (MCF-7 [3]; [14]) [µM] | GI50 (MCF-7 [3]; [15]) [µM] | CDK2/Cyclin E IC50, Purine·β-CD (1:1) (CDK2/cyclin E [2]; [16]) | further results |
| --- | --- | --- | --- | --- | --- | --- | --- | --- | --- | --- | --- | --- |
| CC(C)n1cnc2c(Nc3cccc(C(=O)C45CC6CC(CC(C6)C4)C5)c3)nc(NCCCO)nc21 [Compound 4a, (1-Adamantyl)[3-({2-[(3-hydroxypropyl)amino]-9-isopropyl-9H-purin-6-yl}amino)phenyl]methanone] | 5.5 ± 1.3 | > 40 | 2.55 ± 0.08 µM |  | 6.16 | 15 ± 0.16 | > 40 | > 6.25 | 15.7 ± 0.9 | > 40 |  |  |
| CC(C)n1cnc2c(Nc3ccc(C(=O)C45CC6CC(CC(C6)C4)C5)cc3)nc(NCCCO)nc21 [Compound 4d, (1-Adamantyl)[4-({2-[(3-hydroxypropyl)amino]-9-isopropyl-9H-purin-6-yl}amino)phenyl]methanone] | 1.4 ± 0.5 | 7.57 | 0.6 ± 0.2 µM |  | 5.45 | 16.5 ± 0.7 | > 40 | 5.72 | 13.8 ± 1.4 | > 40 |  | Fold more potent at inhibiting cell proliferation on K-562 than bohemine (K-562 [1]; single purine): 17.8 fold; Fold more potent at inhibiting cell proliferation on K-562 than roscovitine (K-562 [1]; single purine): 9.2 fold; IC50 (CDK2/cyclin E [2]; single purine, read-out: CDK2/cyclin E IC50): 0.58 µM; Efficacy on MCF-7, fold higher than bohemine (MCF-7 [3]; single purine): 4.7 fold; Efficacy on MCF-7, fold higher than roscovitine (MCF-7 [3]; single purine): 2.2 fold |
| CC[C@H](CO)Nc1nc(NCc2ccccc2)c2ncn(C(C)C)c2n1 [Compound 4l, roscovitine] |  |  |  |  |  |  |  |  |  |  |  | GI50 (K-562 [4]): 50.1 µM; GI50 (MCF-7 [5]): 12.6 µM |
| CC(C)n1cnc2c(NC34CC5CC(CC(C5)C3)C4)nc(NCCCO)nc21 [Compound 4m, 6-[(1-adamantyl)amino]-2-[(3-hydroxypropyl)amino]-9-(propan-2-yl)purine] |  |  |  |  |  |  |  |  |  |  |  | IC50 (CDK2): > 100 µM; IC50 (CDK2/cyclin E [6]): > 100 µM; IC50 (CDK1): > 100 µM |
| CC(C)n1cnc2c(NC34CC5CC(CC(C5)C3)C4)nc(NCC(O)CO)nc21 (stereo not drawn) [Compound 4n] |  |  |  |  |  |  |  |  |  |  |  | IC50 (CDK2/cyclin E [6]): > 100 µM |
| CC(C)n1cnc2c(Nc3cccc(C(O)C45CC6CC(CC(C6)C4)C5)c3)nc(NCCCO)nc21 (stereo not drawn) [Compound 4b, 3-{[6-({3-[1-Adamantyl(hydroxy)methyl]phenyl}amino)-9-isopropyl-9H-purin-2-yl]amino}propan-1-ol] | 0.16 | 0.3 ± 0.2 | 0.21 ± 0.02 µM | 88 to 93 | > 6.25 | 34.69 ± 0.14 | > 40 | > 6.25 | 32 ± 3 | > 40 | essentially consistent with their non-complexed forms | Activity on CDK2/cyclin E, fold higher than bohemine (CDK2/cyclin E [2]; single purine, versus bohemine (4k)): 3.5 fold |
| CC(C)n1cnc2c(Nc3cccc(CC45CC6CC(CC(C6)C4)C5)c3)nc(NCCCO)nc21 [Compound 4c, 3-{[6-{[3-(1-Adamantylmethyl)phenyl]amino}-9-isopropyl-9H-purin-2-yl]amino}propan-1-ol] | 1.85 | > 40 | > 10 µM and 12 µM | 88 to 93 | > 6.25 | 28.7 ± 10.2 | > 40 | > 6.25 | > 40 | > 40 |  |  |

Second part, led by results:

| IC50 (CDK2/cyclin E [2]; [10]) [µM] | IC50 (CDK2/cyclin E [2]; [11]) [µM] | IC50 (CDK2/cyclin E [2]; [12]) | melting point [°C] | SMILES | GI50 (K-562 [1]; [7]) [µM] | GI50 (K-562 [1]; [8]) [µM] | GI50 (K-562 [1]; [9]) [µM] | GI50 (MCF-7 [3]; [13]) [µM] | GI50 (MCF-7 [3]; [14]) [µM] | GI50 (MCF-7 [3]; [15]) [µM] | CDK2/Cyclin E IC50, Purine·β-CD (1:1) (CDK2/cyclin E [2]; [16]) | further results |
| --- | --- | --- | --- | --- | --- | --- | --- | --- | --- | --- | --- | --- |
| > 40 | 30.7 | > 10 µM and 14 µM | 64 to 69 | CC(C)n1cnc2c(NCc3cccc(C(=O)CC45CC6CC(CC(C6)C4)C5)c3)nc(NCCCO)nc21 [Compound 4i] | > 6.25 | 19.8 ± 0.5 | > 40 | > 6.25 | 30 ± 5 | > 40 |  |  |
| 1.24 | 7.15 | 0.92 ± 0.18 µM | 87 to 91 | CC(C)n1cnc2c(Nc3cccc(C(O)CC45CC6CC(CC(C6)C4)C5)c3)nc(NCCCO)nc21 (stereo not drawn) [Compound 4g, 3-{[6-({3-[2-(1-Adamantyl)-1-hydroxyethyl]phenyl}amino)-9-isopropyl-9H-purin-2-yl]amino}propan-1-ol] | > 6.25 | 33.6 ± 1.2 | > 40 | > 6.25 | 17 ± 2 | > 40 | essentially consistent with their non-complexed forms |  |
| > 40 | > 40 | > 12.5 µM |  | CC(C)n1cnc2c(Nc3ccc(CC45CC6CC(CC(C6)C4)C5)cc3)nc(NCCCO)nc21 [Compound 4f, 3-{[6-{[4-(1-Adamantylmethyl)phenyl]amino}-9-isopropyl-9H-purin-2-yl]amino}propan-1-ol] | 10.4 ± 0.7 | 24 ± 3 | > 40 | > 12.5 | 32.9 ± 0.1 | > 40 | no activity | CDK2/Cyclin E IC50, Purine·β-CD (1:10) (CDK2/cyclin E [2]; [17]): no activity; CDK2/Cyclin E IC50, Purine (CDK2/cyclin E [2]; [18]): no activity |
| > 40 | > 40 | > 12.5 µM | 72 to 78 | CC(C)n1cnc2c(Nc3cccc(CCC45CC6CC(CC(C6)C4)C5)c3)nc(NCCCO)nc21 [Compound 4h, 3-{[6-({3-[2-(1-Adamantyl)ethyl]phenyl}amino)-9-isopropyl-9H-purin-2-yl]amino}propan-1-ol] | > 12.5 | > 40 | > 40 | > 12.5 | > 40 | > 40 | no activity | CDK2/Cyclin E IC50, Purine·β-CD (1:10) (CDK2/cyclin E [2]; [17]): no activity; CDK2/Cyclin E IC50, Purine (CDK2/cyclin E [2]; [18]): no activity |
| 1.53 | 26.1 | 1.6 ± 0.7 µM |  | CC(C)n1cnc2c(Nc3ccc(C(O)C45CC6CC(CC(C6)C4)C5)cc3)nc(NCCCO)nc21 (stereo not drawn) [Compound 4e, 3-{[6-({4-[1-Adamantyl(hydroxy)methyl]phenyl}amino)-9-isopropyl-9H-purin-2-yl]amino}propan-1-ol] | 10.1 ± 0.8 | 18.7 ± 0.6 | > 40 | 8.1 ± 0.7 | 17 ± 2 | > 40 | essentially consistent with their non-complexed forms |  |
| 15.7 | 20.9 | 3.26 ± 0.01 µM |  | CC(C)n1cnc2c(NCc3ccc(C(=O)CC45CC6CC(CC(C6)C4)C5)cc3)nc(NCCCO)nc21 [Compound 4j] | > 6.25 | 17.7 ± 0.6 | > 40 | > 6.25 | 21.51 ± 0.04 | > 40 |  | Activity on CDK2/cyclin E, fold higher than meta-analogue 4i (CDK2/cyclin E [2]; single purine, para versus meta): 4.3 fold |
